# Test results as given in patent US7005425B2, “Method for treating arrhythmias” (CV Therapeutics, Inc., priority 2002, dated 2006).
# Assay: Plasma concentrations of CVT-510 in rats (LC-MS-MS)
# Assay type: in vivo, Rats (Sprague Dawley)
# Details: subcutaneous osmotic pump, 20 μg/kg/hr
# From the text: A subgroup of animals was implanted with osmotic pumps containing CVT-510 for combination experiments. After 7 days or more of having been implanted with radio-telemetry transmitters for recording ECG (L-2), and verifying that the transmitters were functioning, each rat was implanted with an Alzet mini-osmotic pump. Under anesthesia (see above) and sterile conditions, one Alzet mini-osmotic pump, was implanted subcutaneously (SC) in the interscapular area of each rat. The osmotic pumps were filled with either vehicle or CVT-510 (to deliver a dose of 20 μg/kg/hr).
# Carotid artery was catheterized to obtain serial blood samples for the analysis of CVT-510 plasma concentrations. Animals were anesthetized by peritoneal injection of a “cocktail” (1 ml/kg) containing Ketamine (75 mg/ml), Xylazine (5 mg/ml), and Acepromazine (1 mg/ml). After a 20–30 min. of induction of anesthesia, a midline incision was made in the neck region to expose the external carotid artery. […]
# CVT-510 plasma level analysis was performed as follows. […] Concentration of CVT-510 in protein precipitation filtrates were analyzed by LC-MS-MS using a Waters Alliance 2690 HPLC system (Millford, Mass.) coupled to a Waters/Micromass Quattro Ultima triple quadrupole mass spectrometer (Millford, Mass.). […]
structure (smiles),measurement,value
"OC[C@H]1O[C@@H](n2cnc3c(N[C@@H]4CCOC4)ncnc32)[C@H](O)[C@@H]1O [CVT-510, 6-(3-(R)-aminotetrahydrofuranyl)purine riboside]",plasma concentration of CVT-510,7.5 ± 1 ng/mL
